IC50 data for 24 compounds are collected here from patent publication US10221177B2 (HYDRA BIOSCIENCES, INC., priority 2014, dated 2019).

pIC50: −log10 of the molar value. Bounds are passed on as bounds.

Sequence of human TRPA1 (O75762 whole entry, the tested form may be a part): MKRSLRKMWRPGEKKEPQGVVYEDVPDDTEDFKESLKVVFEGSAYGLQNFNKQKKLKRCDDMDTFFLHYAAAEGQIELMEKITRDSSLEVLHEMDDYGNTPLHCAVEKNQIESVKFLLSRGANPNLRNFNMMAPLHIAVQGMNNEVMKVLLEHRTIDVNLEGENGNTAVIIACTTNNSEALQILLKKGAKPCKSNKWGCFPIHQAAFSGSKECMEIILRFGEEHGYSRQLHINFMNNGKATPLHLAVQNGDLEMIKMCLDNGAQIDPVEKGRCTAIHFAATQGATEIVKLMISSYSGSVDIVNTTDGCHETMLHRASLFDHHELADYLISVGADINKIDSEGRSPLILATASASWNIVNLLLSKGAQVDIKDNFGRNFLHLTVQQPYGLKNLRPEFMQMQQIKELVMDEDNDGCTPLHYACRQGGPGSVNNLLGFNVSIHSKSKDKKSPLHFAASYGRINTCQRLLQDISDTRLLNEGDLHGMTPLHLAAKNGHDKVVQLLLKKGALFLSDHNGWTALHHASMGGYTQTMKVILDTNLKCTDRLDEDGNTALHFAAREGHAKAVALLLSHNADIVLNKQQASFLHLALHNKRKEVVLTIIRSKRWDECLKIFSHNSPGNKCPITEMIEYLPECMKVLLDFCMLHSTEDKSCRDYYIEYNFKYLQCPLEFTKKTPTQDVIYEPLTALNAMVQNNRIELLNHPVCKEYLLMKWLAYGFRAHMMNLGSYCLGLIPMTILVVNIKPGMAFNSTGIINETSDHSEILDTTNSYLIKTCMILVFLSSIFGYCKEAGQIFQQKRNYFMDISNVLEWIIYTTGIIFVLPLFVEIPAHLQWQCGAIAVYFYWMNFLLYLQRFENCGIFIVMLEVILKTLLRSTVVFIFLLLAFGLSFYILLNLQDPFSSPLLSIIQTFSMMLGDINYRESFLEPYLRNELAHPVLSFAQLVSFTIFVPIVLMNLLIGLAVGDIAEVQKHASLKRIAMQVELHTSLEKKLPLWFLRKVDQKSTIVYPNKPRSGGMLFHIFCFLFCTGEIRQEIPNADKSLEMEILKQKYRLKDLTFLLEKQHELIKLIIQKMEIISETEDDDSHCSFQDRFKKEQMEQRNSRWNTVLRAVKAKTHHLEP

This test has as its target human TRPA1 (Homo sapiens (Human), UniProt O75762). Description: In vitro inhibition of human TRPA1, whole cell patch configuration. Format: cell-based. As to conditions: current activation 10 μM AITC, tested concentrations 320 pM to 3.2 μM, read-out: hTRPA1 IC50. In short, it runs like this:
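Compound antagonism measured from voltage ramps (±100 or ±80 mV, 400 ms, every 4 s from −40 mV), analysed at −80 and 80 mV, or at constant −60 mV. HEPES-buffered NaCl bath, pH 7.4, EGTA or 2 mM Ca2+; temperature set by perfusion, within ±2° C; no junction-potential correction.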
On to `Cc1cc(Cn2c(=O)c3c(ncn3[C@@H](C)C(=O)Nc3ccnc(-c4cnc(N5CCC[C@H]5C(F)(F)F)nc4)n3)n(C)c2=O)no1` [Compound 114, (S)-2-(3-methyl-1-((5-methylisoxazol-3-yl)methyl)-2,6-dioxo-2,3-dihydro-1H-purin-7(6H)-yl)-N-(2′-((S)-2-(trifluoromethyl)pyrrolidin-1-yl)-[2,5′-bipyrimidin]-4-yl)propanamide], for which the pIC50 is 8.70.
With `Cc1cc(Cn2c(=O)c3c(ncn3[C@@H](C)C(=O)Nc3cccc(-c4cnc(N5CCC[C@H]5C(F)(F)F)nc4)n3)n(C)c2=O)no1` [Compound 115, (S)-2-(3-methyl-1-((5-methylisoxazol-3-yl)methyl)-2,6-dioxo-2,3-dihydro-1H-purin-7(6H)-yl)-N-(6-(2-((S)-2-(trifluoromethyl)pyrrolidin-1-yl)pyrimidin-5-yl)pyridin-2-yl)propanamide], the pIC50 is 9.00.
Regarding `CCC(=O)Cn1c(=O)c2c(ncn2[C@@H](C)C(=O)Nc2cccc(-c3ccc(C(F)(F)F)nc3)n2)n(C)c1=O` [Compound 116, (S)-2-(3-methyl-2,6-dioxo-1-(2-oxobutyl)-2,3-dihydro-1H-purin-7(6H)-yl)-N-(6′-(trifluoromethyl)-[2,3′-bipyridin]-6-yl)propanamide], the pIC50 was less than 5.49.
In the case of `C[C@@H](C(=O)Nc1cccc(-c2cnc(C(F)(F)F)nc2)n1)n1cnc2c1c(=O)n(Cc1ccon1)c(=O)n2C` [Compound 117, (S)-2-(1-(isoxazol-3-ylmethyl)-3-methyl-2,6-dioxo-2,3-dihydro-1H-purin-7(6H)-yl)-N-(6-(2-(trifluoromethyl)pyrimidin-5-yl)pyridin-2-yl)propanamide], the negative-log IC50 (pIC50) was 7.74.
In the case of `Cc1cc(Cn2c(=O)c3c(ncn3[C@@H](C)C(=O)Nc3cncc(-c4ccc(C(F)(F)F)nc4)n3)n(C)c2=O)no1` [Compound 118, (S)-2-(3-methyl-1-((5-methylisoxazol-3-yl)methyl)-2,6-dioxo-2,3-dihydro-1H-purin-7(6H)-yl)-N-(6-(6-(trifluoromethyl)pyridin-3-yl)pyrazin-2-yl)propanamide], the negative logarithm of the IC50 (pIC50) is 7.77.
Turning to `C[C@@H](C(=O)Nc1cncc(-c2ccc(C(F)(F)F)nc2)n1)n1cnc2c1c(=O)n(Cc1ccon1)c(=O)n2C` [Compound 119, (S)-2-(1-(isoxazol-3-ylmethyl)-3-methyl-2,6-dioxo-2,3-dihydro-1H-purin-7(6H)-yl)-N-(6-(6-(trifluoromethyl)pyridin-3-yl)pyrazin-2-yl)propanamide], the negative logarithm of the IC50 (pIC50) was 7.55.
To `C[C@@H](C(=O)Nc1cncc(-c2cnc(C(F)(F)F)nc2)n1)n1cnc2c1c(=O)n(Cc1ccon1)c(=O)n2C` [Compound 120, (S)-2-(1-(isoxazol-3-ylmethyl)-3-methyl-2,6-dioxo-2,3-dihydro-1H-purin-7(6H)-yl)-N-(6-(2-(trifluoromethyl)pyrimidin-5-yl)pyrazin-2-yl)propanamide] belongs 7.59.
To `COc1ncc(-c2cccc(NC(=O)[C@H](C)n3cnc4c3c(=O)n(Cc3cc(C)on3)c(=O)n4C)n2)cc1C(F)(F)F` [Compound 121, (S)—N-(6′-methoxy-5′-(trifluoromethyl)-[2,3′-bipyridin]-6-yl)-2-(3-methyl-1-((5-methylisoxazol-3-yl)methyl)-2,6-dioxo-2,3-dihydro-1H-purin-7(6H)-yl)propanamide] belongs 9.00; to `CCOc1ncc(-c2cccc(NC(=O)[C@H](C)n3cnc4c3c(=O)n(Cc3cc(C)on3)c(=O)n4C)n2)cc1C(F)(F)F` [Compound 122, (S)—N-(6′-ethoxy-5′-(trifluoromethyl)-[2,3′-bipyridin]-6-yl)-2-(3-methyl-1-((5-methylisoxazol-3-yl)methyl)-2,6-dioxo-2,3-dihydro-1H-purin-7(6H)-yl)propanamide], 9.00.
`Cc1cc(Cn2c(=O)c3c(ncn3[C@@H](C)C(=O)Nc3cccc(-c4cnc(Cl)c(C(F)(F)F)c4)n3)n(C)c2=O)no1` [Compound 123, (S)—N-(6′-chloro-5′-(trifluoromethyl)-[2,3′-bipyridin]-6-yl)-2-(3-methyl-1-((5-methylisoxazol-3-yl)methyl)-2,6-dioxo-2,3-dihydro-1H-purin-7(6H)-yl)propanamide]: the pIC50 was 8.70.
`CCC(=O)Cn1c(=O)c2c(ncn2[C@@H](C)C(=O)Nc2cccc(-c3cnc(OC)c(C(F)(F)F)c3)n2)n(C)c1=O` [Compound 124, (S)—N-(6′-methoxy-5′-(trifluoromethyl)-[2,3′-bipyridin]-6-yl)-2-(3-methyl-2,6-dioxo-1-(2-oxobutyl)-2,3-dihydro-1H-purin-7(6H)-yl)propanamide]: the pIC50 is 9.00.
With `CCOc1ncc(-c2cccc(NC(=O)[C@H](C)n3cnc4c3c(=O)n(CC(=O)CC)c(=O)n4C)n2)cc1C(F)(F)F` [Compound 125, (S)—N-(6′-ethoxy-5′-(trifluoromethyl)-[2,3′-bipyridin]-6-yl)-2-(3-methyl-2,6-dioxo-1-(2-oxobutyl)-2,3-dihydro-1H-purin-7(6H)-yl)propanamide] the figure was 9.00; with `Cc1cc(Cn2c(=O)c3c(ncn3[C@@H](C)C(=O)Nc3cccc(-c4cnc(C)c(C(F)(F)F)c4)n3)n(C)c2=O)no1` [Compound 126, (S)-2-(3-methyl-1-((5-methylisoxazol-3-yl)methyl)-2,6-dioxo-2,3-dihydro-1H-purin-7(6H)-yl)-N-(6′-methyl-5′-(trifluoromethyl)-[2,3′-bipyridin]-6-yl)propanamide], 9.00.
To `Cc1cc(Cn2c(=O)c3c(ncn3[C@@H](C)C(=O)Nc3cccc(-c4cnc(C)c(C)c4)n3)n(C)c2=O)no1` [Compound 127, (S)—N-(5′,6′-dimethyl-[2,3′-bipyridin]-6-yl)-2-(3-methyl-1-((5-methylisoxazol-3-yl)methyl)-2,6-dioxo-2,3-dihydro-1H-purin-7(6H)-yl)propanamide] belongs 7.60.
With `Cc1cc(Cn2c(=O)c3c(ncn3[C@@H](C)C(=O)Nc3cncc(-c4cnc(C)c(C(F)(F)F)c4)n3)n(C)c2=O)no1` [Compound 128, (S)-2-(3-methyl-1-((5-methylisoxazol-3-yl)methyl)-2,6-dioxo-2,3-dihydro-1H-purin-7(6H)-yl)-N-(6-(6-methyl-5-(trifluoromethyl)pyridin-3-yl)pyrazin-2-yl)propanamide] the figure was 8.40; with `Cc1cc(Cn2c(=O)c3c(ncn3[C@@H](C)C(=O)Nc3cccc(-c4cnc(C(F)(F)F)c(C)c4)n3)n(C)c2=O)no1` [Compound 129, (S)-2-(3-methyl-1-((5-methylisoxazol-3-yl)methyl)-2,6-dioxo-2,3-dihydro-1H-purin-7(6H)-yl)-N-(5′-methyl-6′-(trifluoromethyl)-[2,3′-bipyridin]-6-yl)propanamide], 8.70; with `Cc1cc(Cn2c(=O)c3c(ncn3[C@@H](C)C(=O)Nc3cncc(-c4cnc(C(F)(F)F)c(C)c4)n3)n(C)c2=O)no1` [Compound 130, (S)-2-(3-methyl-1-((5-methylisoxazol-3-yl)methyl)-2,6-dioxo-2,3-dihydro-1H-purin-7(6H)-yl)-N-(6-(5-methyl-6-(trifluoromethyl)pyridin-3-yl)pyrazin-2-yl)propanamide], 8.10.
Turning to `Cc1noc(Cn2c(=O)c3c(ncn3[C@@H](C)C(=O)Nc3cccc(-c4cnc(C(F)(F)F)c(C)c4)n3)n(C)c2=O)n1` [Compound 131, (S)-2-(3-methyl-1-((3-methyl-1,2,4-oxadiazol-5-yl)methyl)-2,6-dioxo-2,3-dihydro-1H-purin-7(6H)-yl)-N-(5′-methyl-6′-(trifluoromethyl)-[2,3′-bipyridin]-6-yl)propanamide], the pIC50 was 8.22.
To `Cc1noc(Cn2c(=O)c3c(ncn3[C@@H](C)C(=O)Nc3cncc(-c4cnc(C)c(C(F)(F)F)c4)n3)n(C)c2=O)n1` [Compound 132, (S)-2-(3-methyl-1-((3-methyl-1,2,4-oxadiazol-5-yl)methyl)-2,6-dioxo-2,3-dihydro-1H-purin-7(6H)-yl)-N-(6-(6-methyl-5-(trifluoromethyl)pyridin-3-yl)pyrazin-2-yl)propanamide] belongs 8.05; to `Cc1noc(Cn2c(=O)c3c(ncn3[C@@H](C)C(=O)Nc3cncc(-c4cnc(C(F)(F)F)c(C)c4)n3)n(C)c2=O)n1` [Compound 133, (S)-2-(3-methyl-1-((3-methyl-1,2,4-oxadiazol-5-yl)methyl)-2,6-dioxo-2,3-dihydro-1H-purin-7(6H)-yl)-N-(6-(5-methyl-6-(trifluoromethyl)pyridin-3-yl)pyrazin-2-yl)propanamide], 8.05; to `Cc1ncc(-c2cccc(NC(=O)[C@H](C)n3cnc4c3c(=O)n(Cc3ccon3)c(=O)n4C)n2)cc1C(F)(F)F` [Compound 136, (S)-2-(1-(isoxazol-3-ylmethyl)-3-methyl-2,6-dioxo-2,3-dihydro-1H-purin-7(6H)-yl)-N-(6′-methyl-5′-(trifluoromethyl)-[2,3′-bipyridin]-6-yl)propanamide], 8.52.
To `Cc1cc(-c2cncc(NC(=O)[C@H](C)n3cnc4c3c(=O)n(Cc3ccon3)c(=O)n4C)n2)cnc1C(F)(F)F` [Compound 137, (S)-2-(1-(isoxazol-3-ylmethyl)-3-methyl-2,6-dioxo-2,3-dihydro-1H-purin-7(6H)-yl)-N-(6-(5-methyl-6-(trifluoromethyl)pyridin-3-yl)pyrazin-2-yl)propanamide] belongs 7.89; to `Cc1cc(Cn2c(=O)c3c(ncn3[C@@H](C)C(=O)Nc3cncc(-c4cnc(C)c(Cl)c4)n3)n(C)c2=O)no1` [Compound 139, (S)—N-(6-(5-chloro-6-methylpyridin-3-yl)pyrazin-2-yl)-2-(3-methyl-1-((5-methylisoxazol-3-yl)methyl)-2,6-dioxo-2,3-dihydro-1H-purin-7(6H)-yl)propanamide], 7.96; to `CC(=O)Cn1c(=O)c2c(ncn2[C@@H](C)C(=O)Nc2cncc(-c3cnc(C)c(Cl)c3)n2)n(C)c1=O` [Compound 140, (S)—N-(6-(5-chloro-6-methylpyridin-3-yl)pyrazin-2-yl)-2-(3-methyl-2,6-dioxo-1(2-oxopropyl)-2,3-dihydro-1H-purin-7(6H)-yl)propanamide], 7.49.
